# Earlier results, collected in US20200188405A1, “COMPOSITION FOR TREATING OCULAR DISORDERS SUCH AS MACULAR DEGENERATION, RETINOPATHY AND GLAUCOMA” (RHEOSTASIS, LLC, priority 2017, published 2020).
# Structures can show the parent of a compound that is named as a salt.
# System: β (beta) blocker
# Conditions: ocular applications
smiles,measurement,value
CC(C)(C)NC[C@H](O)COc1nsnc1N1CCOCC1 [Timolol Maleate],potency as β blocker relative to propranolol,5-10 times
